# Tested on: IgE antibodies from patients
# Test: Wheat epitope mapping (2): overlapping 10-amino-acid peptide fragments shifted by one amino acid;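 as to Rank of partial sequence as epitope binding to IgE antibody: key = sequence deemed particularly important within the common 15-residue sequence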;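 as to epitope sequence binding to IgE antibody, rank (Key/Preferably/More preferably): key of grades: preferably = shorter partial sequence still acting as epitope; more preferably = sequence improving IgE binding; key = particularly important sequence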
# Assay type: binding, human
# Details: serum of patient G9 (adult, general immediate type allergy to wheat); sequence without X
# Outline: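 Residual binding was banded as <30% none, 30–<50% poor, 50–<70% somewhat poor and ≥70% retained, relative to the parent overlapping sequence set to 100%. Values were chemiluminescent IgE signals from patient sera after subtracting secondary-antibody-only controls. The peptides were spot-synthesised 10-mers shifted by one amino acid.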
row,Rank of partial sequence as epitope binding to IgE antibody,Substance
1,Key,1507 (YLQPQ; REGION 1..5: note = epitope) [compound 1507]

# Same assay, conditions: serum of patient P10 (WDEIA); sequence without X
"Epitope sequence binding to IgE antibody, rank of the sequence",Rank of partial sequence as epitope binding to IgE antibody,Substance
Key,–,1223 (IQQQP; REGION 1..5: note = epitope) [compound 1223]
–,Preferably,1525 (LVQQQQFLG; REGION 1..9: note = epitope) [compound 1525]

# Same assay, conditions: serum of patient P24 (WDEIA); partial sequence
row,"Epitope sequence binding to IgE antibody, rank of the sequence",Substance
1,Key,2616 (AKPLL; REGION 1..5: note = epitope) [compound 2616]

# Same assay, conditions: serum of patient P24 (WDEIA); sequence without X
row,Rank of partial sequence as epitope binding to IgE antibody,Substance
1,More preferably,1460 (LQPQQPISQ; REGION 1..9: note = epitope) [compound 1460]

# Same assay, conditions: serum of patient P27 (WDEIA); sequence without X
row,"Epitope sequence binding to IgE antibody, rank of the sequence (Key/Preferably/More preferably)",Substance
1,Key,2377 (YVTEIV; REGION 1..6: note = epitope) [compound 2377]

# Same assay, conditions: serum of patient P32 (WDEIA)
row,"epitope sequence binding to IgE antibody, rank (Key/Preferably/More preferably)",Substance
1,Key,1962 (QQQFPGQQ; REGION 1..8: note = epitope) [compound 1962]

# Same assay, conditions: serum of patient P34 (WDEIA); sequence without X
row,Rank of partial sequence as epitope binding to IgE antibody,Substance
1,More preferably,1550 (LVQQQQFLGQ; REGION 1..10: note = epitope) [compound 1550]

# Same assay, conditions: serum of patient P50 (child, general immediate type allergy to wheat); partial sequence
row,"Epitope sequence binding to IgE antibody, rank of the sequence",Substance
1,Key,2664 (FEKEA; REGION 1..5: note = epitope) [compound 2664]

# Tested on: IgE antibody present in the serum of a wheat-allergic patient
# Test: Wheat epitope mapping (1): peptide array of overlapping 15-amino-acid peptides, chemiluminescence
# Assay type: binding, human
# Details: bound = chemiluminescence value minus N2nd value of 5 non-wheat-allergic subjects at least 35,000; serum of 49 patients
# Protocol: Epitope mapping was carried out using a library of overlapping peptides (length: 15 amino acids) corresponding to the amino acid sequences identified as allergy components of wheat. Specifically, the library of overlapping peptides was prepared on the basis of the amino acid sequences of SEQ ID NOs: 2, 4, 6, 8, 10, 12, 14, 16, 18, 20, 22, 24, 26 and 28.
# The peptides to be synthesized were shifted by 10 amino acids.
# For preparation of peptide arrays, the Intavis CelluSpots™ technique was used. Specifically, the peptide arrays were prepared by the following procedure: (1) synthesizing peptides of interest on amino-modified cellulose disks using an automated chemical synthesis apparatus (Intavis MultiPep RS), (2) dissolving the amino-modified cellulose disks to obtain a cellulose-bound peptide solution, and (3) spotting the cellulose-bound peptides onto coated glass slides. The details of each procedure are as described below.
# Peptide synthesis was carried out in incremental steps through 9-fluorenylmethoxycarbonyl (Fmoc) chemical reaction on amino-modified cellulose disks in 384-well synthesis plates. Specifically, amino acids in which a Fmoc group is bonded to an amino group were activated in a solution of N,N′-diisopropylcarbodiimide (DIC) and 1-hydroxybenzotriazole (HOBt) in dimethylformamide (DMF) and added dropwise to the cellulose disks so that the Fmoc group-bound amino acids were bound to the amino groups on the cellulose disks (coupling). Unreacted amino groups were capped with acetic anhydride and washed with DMF. Furthermore, the Fmoc groups were eliminated from the amino groups of the amino acids bound to the amino groups on the cellulose disks by treatment with piperidine and washing with DMF. The amino acids bound to the amino groups on the cellulose disks were repetitively subjected to the coupling, the capping, and the Fmoc group elimination described above to elongate the amino terminus for peptide synthesis.
# The peptides-bound cellulose disks of interest obtained above in the subsection titled “(1) Synthesis of peptide” were transferred to 96-well plates and treated with a side chain deprotection mixed solution of trifluoroacetic acid (TFA), dichloromethane, triisopropylsilane (TIPS), and water for deprotection of amino acid side chains. Then, the deprotected cellulose-bound peptides were dissolved in a mixed solution of TFA, […] acid (TFMSA), TIPS, and water and precipitated in […] methyl ether (TBME), and the precipitate was resuspended in dimethyl sulfoxide (DMSO) and mixed with a mixed solution of NaCl, sodium citrate, and water to obtain a peptide solution for slide spotting.
# The peptide solution for slide spotting obtained above in the subsection titled “(2) Dissolution of amino-modified cellulose disk” was spotted onto Intavis CelluSpots™ slides using Intavis Slide Spotting Robot, and the slides were dried to prepare peptide arrays.
# The presence or absence of binding, to each peptide fragment, of an IgE antibody present in the serum of a wheat-allergic patient was measured through antigen-antibody reaction using the peptide arrays. […]
row,binding of patient-specific IgE antibodies to 15-residue peptide,Substance
1,confirmed to bind,SEQ ID NO: 2027: common 15-residue epitope sequence of polypeptide (E34) (TPGALQYLSGVILFE; REGION 1..15: note = epitope)
2,confirmed to bind,SEQ ID NO: 562: common 15-residue epitope sequence of polypeptide (E8) (KPSQQQPLPLQQILW; REGION 1..15: note = epitope)
3,confirmed to bind,SEQ ID NO: 2491: common 15-residue epitope sequence of polypeptide (E42) (SSQVSFQPSQLNPQA; REGION 1..15: note = epitope)
4,confirmed to bind,SEQ ID NO: 1895: common 15-residue epitope sequence of polypeptide (E31) (QVPLVQQQQFPGQQQ; REGION 1..15: note = epitope)
5,confirmed to bind,SEQ ID NO: 2419: common 15-residue epitope sequence of polypeptide (E41) (QSTLKAWSGKTENEE; REGION 1..15: note = epitope)
6,confirmed to bind,SEQ ID NO: 1685: common 15-residue epitope sequence of polypeptide (E27) (PAKEAANFTSQVIIM; REGION 1..15: note = epitope)
7,confirmed to bind,SEQ ID NO: 281: common 15-residue epitope sequence of polypeptide (E4) (QQPQQPFPQQQQPLI; REGION 1..15: note = epitope)
8,confirmed to bind,SEQ ID NO: 493: common 15-residue epitope sequence of polypeptide (E7) (PQQPYPQQQPQYLQP; REGION 1..15: note = epitope)

# The next lines start with the substance.
row,Substance,binding of patient-specific IgE antibodies to 15-residue peptide
1,SEQ ID NO: 1508: common 15-residue epitope sequence of polypeptide (E23) (QVPLVQQQQFLGQQQ; REGION 1..15: note = epitope),confirmed to bind
2,SEQ ID NO: 2809: common 15-residue epitope sequence of polypeptide (E49) (VYSANTHRSKWFRVV; REGION 1..15: note = epitope),confirmed to bind
3,SEQ ID NO: 2217: common 15-residue epitope sequence of polypeptide (E37) (VSRLLRGIRNYRVAI; REGION 1..15: note = epitope),confirmed to bind
4,SEQ ID NO: 191: common 15-residue epitope sequence of polypeptide (E3) (SQQQQPFPQQQQPLL; REGION 1..15: note = epitope),confirmed to bind
5,SEQ ID NO: 2309: common 15-residue epitope sequence of polypeptide (E39) (QSRYDAIRAIIYSIV; REGION 1..15: note = epitope),confirmed to bind
6,SEQ ID NO: 1166: common 15-residue epitope sequence of polypeptide (E17) (PGQQQQFPPQQPYPQ; REGION 1..15: note = epitope),confirmed to bind
7,SEQ ID NO: 1566: common 15-residue epitope sequence of polypeptide (E24) (PQQPQQPFPQTQQPQ; REGION 1..15: note = epitope),confirmed to bind
8,SEQ ID NO: 2613: common 15-residue epitope sequence of polypeptide (E44) (SAKPLLASLSKRVLT; REGION 1..15: note = epitope),confirmed to bind
9,SEQ ID NO: 2830: common 15-residue epitope sequence of polypeptide (E50) (YIVVEGRDGYFEMAC; REGION 1..15: note = epitope),confirmed to bind
10,SEQ ID NO: 1753: common 15-residue epitope sequence of polypeptide (E28) (VKEVSSYLKKVGYNP; REGION 1..15: note = epitope),confirmed to bind
11,SEQ ID NO: 346: common 15-residue epitope sequence of polypeptide (E5) (PQQSFPQQQRPFIQP; REGION 1..15: note = epitope),confirmed to bind
12,SEQ ID NO: 2004: common 15-residue epitope sequence of polypeptide (E33) (STGTIGKRFASINVE; REGION 1..15: note = epitope),confirmed to bind
13,SEQ ID NO: 1598: common 15-residue epitope sequence of polypeptide (E25) (PQQPAQLEAIRSLVL; REGION 1..15: note = epitope),confirmed to bind
14,SEQ ID NO: 131: common 15-residue epitope sequence of polypeptide (E2) (PPFPQQHQQFPQQQI; REGION 1..15: note = epitope),confirmed to bind
15,SEQ ID NO: 1977: common 15-residue epitope sequence of polypeptide (E32) (DPTGAKVTKAAIKKK; REGION 1..15: note = epitope),confirmed to bind
16,SEQ ID NO: 706: common 15-residue epitope sequence of polypeptide (E10) (VILFEETLYQSTKGG; REGION 1..15: note = epitope),confirmed to bind
17,SEQ ID NO: 29: common 15-residue epitope sequence of polypeptide (E1) (QQILWYHQQQPIQQQ; REGION 1..15: note = epitope),confirmed to bind
18,SEQ ID NO: 2342: common 15-residue epitope sequence of polypeptide (E40) (HDIDRCAYVTEIVLA; REGION 1..15: note = epitope),confirmed to bind
19,SEQ ID NO: 1789: common 15-residue epitope sequence of polypeptide (E29) (SGKELEALPKFLKNG; REGION 1..15: note = epitope),confirmed to bind

# — patent US20240393292A1, “ALLERGY ANTIGEN AND EPITOPE THEREOF” (HOYU CO., LTD., priority 2019, published 2024)
